In brackets after ≈: the same amount, converted by molar mass. Like-named read-outs stand apart in the source and are kept apart here.
Assays:
[1] = tested on: Penicillium chrysogenum (Pc); assay: MIC for Penicillium chrysogenum, malt yeast agar; type: cell-based, Penicillium chrysogenum ATCC 9480; details: malt yeast agar; 30° C., 72 hours for fungi; read-out: Minimum Inhibitory Concentration (MIC), PC
Protocol: (§1) The minimum inhibitory concentration (MIC) for the compounds listed in Table I is determined for 9 bacteria, using nutrient agar; and 7 yeast and fungi, using malt yeast agar. A one percent solution of the test compound is prepared in a mixture of acetone and water.
(§2) Malt yeast agar is prepared by adding 3 g yeast extract and 45 g malt agar per liter of deionized water. The specific agar is dispensed in 30 mL aliquots into 25×200 mm test tubes, capped and autoclaved for 15 minutes at 115° C.
(§3) The test tubes containing the malt yeast agar and the nutrient agar are cooled in a water bath until the temperature of the agar is 48° C. Then, an appropriate amount of the one percent solution of the test compound is added (except in the controls where no compound is added) to the respective test tubes so that the final concentrations are zero (0), 1.0, 2.5, 5, 10, 25, 50, 100, 250 and 500 parts per million of the test compound in each of the respective type of agar. The contents of each of the test tubes are then transferred to separate petri plates. After drying for 24 hours, the petri plates containing nutrient agar are inoculated with bacteria and those containing malt yeast agar are inoculated with yeast and fungi.
(§4) The inoculation with the yeast and fungi is accomplished as follows. Cultures of yeast and fungi are incubated for seven days on malt yeast agar at 30° C. These cultures are used to prepare suspensions by the following procedure. A suspension of each organism is prepared by adding 10 mL of sterile saline and 10 microliters of octylphenoxy polyethoxy ethanol to the agar slant of yeast or fungi. The sterile saline/octylphenoxy polyethoxy ethanol solution is then agitated with a sterile swab to suspend the microorganism grown on the slant. Each resulting suspension is diluted into sterile saline (1 part suspension: 9 parts sterile saline). Aliquots of these dilutions are placed in individual wells of Steer's Replicator and petri plates inoculated as previously described. The petri plates are incubated at 30° C. and read after 48 hours for yeast and 72 hours for fungi.
(§5) Table II list the bacteria, yeast and fungi used in the MIC test described above along with their respective American Type Culture Collection (ATCC) identification numbers.

[2] = tested on: Trichoderma viride (Tv); assay: MIC for Trichoderma viride, malt yeast agar; type: cell-based, Trichoderma viride ATCC 8678; details: malt yeast agar; 30° C., 72 hours for fungi; read-out: Minimum Inhibitory Concentration (MIC), Tv
Protocol: as §1, §2, §3, §4, §5

[3] = tested on: Aspergillus niger (An); assay: MIC for Aspergillus niger, malt yeast agar; type: cell-based, Aspergillus niger ATCC 16404; details: malt yeast agar; 30° C., 72 hours for fungi; read-out: Minimum Inhibitory Concentration (MIC), An
Protocol: as §1, §2, §3, §4, §5

[4] = tested on: Enterobacter aerogenes (Ea); assay: MIC for Enterobacter aerogenes, nutrient agar; type: cell-based, Enterobacter aerogenes ATCC 13048; details: Klebsiella aerogenes, nutrient agar, 30° C., 48 hours, read-out: Minimum Inhibitory Concentration (MIC), Ea
Protocol: as §1
(§6) Nutrient agar is prepared at pH 6.8, representing a neutral medium, and at pH 8.2, representing an alkaline medium. The nutrient agars are prepared by adding 23 g of nutrient agar to one-liter of deionized water. In addition, the alkaline medium is prepared by adjusting a 0.04M solution of N-[tris-(hydroxymethyl)methyl]-glycine buffered deionized water with concentrated sodium hydroxide to a pH of 8.5.
as §3
(§7) The inoculation with bacteria is accomplished by using the following procedure. Twenty-four hour-cultures of each of the bacteria are prepared by incubating the respective bacteria in tubes containing nutrient broth for 24 hours at 30° C. in a shaker. Dilutions of each of the 24 hour-cultures are made so that nine separate suspensions (one for each of the nine test bacteria) are made, each containing 10^8 colony forming units (CFU) per mL of suspension of a particular bacteria. Aliquots of 0.3 mL of each of the bacterial suspensions are used to fill the individual wells of Steer's Replicator. For each microbial suspension, 0.3 mL was used to fill three wells (i.e., three wells of 0.3 mL each) so that for the nine different bacteria, 27 wells are filled. The Steer's Replicator is then used to inoculate both the neutral and alkaline pH nutrient agar petri plates.
(§8) The inoculated petri plates are incubated at 30° C. for 48 hours and then read to determine if the test compound which is incorporated into the agar prevented growth of the respective bacteria.
as §5

[5] = tested on: Bacillus subtilis (Bs); assay: MIC for Bacillus subtilis, nutrient agar; type: cell-based, Bacillus subtilis ATCC 8473; details: 30° C., 48 hours, read-out: Minimum Inhibitory Concentration (MIC), Bs
Protocol: as §1, §6, §3, §7, §8, §5

[6] = tested on: Pseudomonas aeruginosa (Pa); assay: MIC for Pseudomonas aeruginosa, nutrient agar; type: cell-based, Pseudomonas aeruginosa ATCC 10145; details: 48 hours, read-out: Minimum Inhibitory Concentration (MIC), Pa
Protocol: as §1, §6, §3, §7, §8, §5

[7] = tested on: Aureobasidium pullulan (Ap); assay: MIC for Aureobasidium pullulan, malt yeast agar; type: cell-based, Aureobasidium pullulan ATCC 16622; details: malt yeast agar; 30° C.; 48 hours for yeast and 72 hours for fungi; read-out: Minimum Inhibitory Concentration (MIC), Ap
Protocol: as §1, §2, §3, §4, §5

[8] = tested on: Staphylococcus aureus (Sa); assay: MIC for Staphylococcus aureus, nutrient agar; type: cell-based, Staphylococcus aureus ATCC 6538; details: 30° C., 48 hours, read-out: Minimum Inhibitory Concentration (MIC), Sa
Protocol: as §1, §6, §3, §7, §8, §5

[9] = tested on: Klebsiella pneumonias (Kp); assay: MIC for Klebsiella pneumonias, nutrient agar; type: cell-based, Klebsiella pneumonias ATCC 8308; details: 30° C., 48 hours, read-out: Minimum Inhibitory Concentration (MIC), Kp
Protocol: as §1, §6, §3, §7, §8, §5

[10] = tested on: Candida albicans (Ca); assay: MIC for Candida albicans, malt yeast agar; type: cell-based, Candida albicans ATCC 10231; details: malt yeast agar; 30° C., 48 hours for yeast; read-out: Minimum Inhibitory Concentration (MIC), Ca
Protocol: as §1, §2, §3, §4, §5

[11] = tested on: Proteus vulgaris (Pv); assay: MIC for Proteus vulgaris, nutrient agar; type: cell-based, Proteus vulgaris ATCC 881; details: 30° C., 48 hours, read-out: Minimum Inhibitory Concentration (MIC), Pv
Protocol: as §1, §6, §3, §7, §8, §5

[12] = tested on: Fusarium oxysporum (Fo); assay: MIC for Fusarium oxysporum, malt yeast agar; type: cell-based, Fusarium oxysporum ATCC 48112; details: malt yeast agar; 30° C., 72 hours for fungi; read-out: Minimum Inhibitory Concentration (MIC), Fo
Protocol: as §1, §2, §3, §4, §5

[13] = tested on: Salmonella choleraesuis; assay: MIC for Salmonella choleraesuis, nutrient agar; type: cell-based, Salmonella choleraesuis ATCC 10708; details: Salmonella enterica, 30° C., 48 hours, read-out: Minimum Inhibitory Concentration (MIC), SC
Protocol: as §1, §6, §3, §7, §8, §5

[14] = tested on: Pseudomonas aeruginosa (PRD-10); assay: MIC for Pseudomonas aeruginosa PRD-10, nutrient agar; type: cell-based, Pseudomonas aeruginosa ATCC 15442; details: 30° C., 48 hours, read-out: Minimum Inhibitory Concentration (MIC), PRD
Protocol: as §1, §6, §3, §7, §8, §5

[15] = tested on: Saccharomyces cerevisiae; assay: MIC for Saccharomyces cerevisiae, malt yeast agar; type: cell-based, Saccharomyces cerevisiae ATCC 4105; details: malt yeast agar, 30° C., 48 hours for yeast, read-out: Minimum Inhibitory Concentration (MIC), Sc
Protocol: as §1, §2, §3, §4, §5

[16] = tested on: Escherichia coli (Ec); assay: MIC for Escherichia coli, nutrient agar; type: cell-based, Escherichia coli ATCC 11229; details: 30° C., 48 hours, read-out: Minimum Inhibitory Concentration (MIC), Ec
Protocol: as §1, §6, §3, §7, §8, §5

| Structure (SMILES) | MIC [1] [µg/mL] | MIC [2] [µg/mL] | MIC [3] [µg/mL] | MIC ([4]; pH 6.8) [µg/mL] | MIC ([4]; pH 8.2) [µg/mL] | MIC ([5]; pH 6.8, nutrient agar) [µg/mL] | MIC ([5]; pH 8.2, nutrient agar) [µg/mL] | MIC ([6]; pH 6.8, 30° C.) [µg/mL] | MIC ([6]; pH 8.2, 30° C.) [µg/mL] | MIC [7] [µg/mL] | MIC ([8]; pH 6.8, nutrient agar) [µg/mL] | MIC ([8]; pH 8.2, nutrient agar) [µg/mL] | MIC ([9]; pH 6.8, nutrient agar) [µg/mL] | MIC ([9]; pH 8.2, nutrient agar) [µg/mL] | MIC [10] [µg/mL] | MIC ([11]; pH 6.8, nutrient agar) [µg/mL] | MIC ([11]; pH 8.2, nutrient agar) [µg/mL] | MIC [12] [µg/mL] | MIC ([13]; pH 6.8, nutrient agar) [µg/mL] | MIC ([13]; pH 8.2, nutrient agar) [µg/mL] | other results |
| --- | --- | --- | --- | --- | --- | --- | --- | --- | --- | --- | --- | --- | --- | --- | --- | --- | --- | --- | --- | --- | --- |
| N#CC1=C(C#N)Sc2c(cnn(-c3ccc([N+](=O)[O-])cc3)c2=O)S1 [H, 5,6-dihydro-6-(4-nitrophenyl)-5-oxo-1,4-dithiino-(2,3-d)-pyridazine-2,3-dicarbonitrile] | > 500 | > 500 | > 500 | > 500 | > 500 | > 500 | > 500 | > 500 | > 500 | > 500 | > 500 | > 500 | > 500 | > 500 | > 500 | > 500 | > 500 | > 500 | > 500 | > 500 | MIC ([14]; pH 6.8, nutrient agar): > 500 µg/mL; MIC ([14]; pH 8.2, nutrient agar): > 500 µg/mL; MIC [15]: > 500 µg/mL; MIC ([16]; pH 6.8, nutrient agar): > 500 µg/mL; MIC ([16]; pH 8.2, nutrient agar): > 500 µg/mL |
| N#CC1=C(C#N)Sc2c(cnn(Cc3ccccc3)c2=O)S1 [I, 5,6-dihydro-6-(phenylmethyl)-5-oxo-1,4-dithiino-(2,3-d)-pyridazine-2,3-dicarbonitrile] | 25 (≈ 77.1 µM) | 25 (≈ 77.1 µM) | 25 (≈ 77.1 µM) | > 500 | > 500 | < 10 | 100 (≈ 308 µM) | 250 (≈ 771 µM) | > 500 | < 10 | 50 (≈ 154 µM) | > 500 | 100 (≈ 308 µM) | > 500 | < 10 | 100 (≈ 308 µM) | > 500 | < 10 | 250 (≈ 771 µM) | > 500 | MIC ([14]; pH 6.8, nutrient agar): > 500 µg/mL; MIC ([14]; pH 8.2, nutrient agar): > 500 µg/mL; MIC [15]: < 10 µg/mL; MIC ([16]; pH 6.8, nutrient agar): > 500 µg/mL; MIC ([16]; pH 8.2, nutrient agar): > 500 µg/mL |
| N#CC1=C(C#N)Sc2c(cnn(Cc3ccc(Cl)cc3)c2=O)S1 [J, 5,6-dihydro-6-((4-chlorophenyl)methyl)-5-oxo-1,4-dithiino-(2,3-d)-pyridazine-2,3-dicarbonitrile] | < 10 | 25 (≈ 69.7 µM) | < 10 | > 500 | > 500 | < 10 | 50 (≈ 139 µM) | > 500 | > 500 | < 10 | 25 (≈ 69.7 µM) | 100 (≈ 279 µM) | > 500 | > 500 | < 10 | 250 (≈ 697 µM) | > 500 | < 10 | > 500 | > 500 | MIC ([14]; pH 6.8, nutrient agar): > 500 µg/mL; MIC ([14]; pH 8.2, nutrient agar): > 500 µg/mL; MIC [15]: < 10 µg/mL; MIC ([16]; pH 6.8, nutrient agar): 100 µg/mL (≈ 279 µM); MIC ([16]; pH 8.2, nutrient agar): > 500 µg/mL |
| Cc1ccc(Cn2ncc3c(c2=O)SC(C#N)=C(C#N)S3)cc1 [K, 5,6-dihydro-6-((4-methylphenyl)methyl)-5-oxo-1,4-dithiino-(2,3-d)-pyridazine-2,3-dicarbonitrile] | 25 (≈ 73.9 µM) | 25 (≈ 73.9 µM) | 25 (≈ 73.9 µM) | > 500 | > 500 | < 10 | 100 (≈ 295 µM) | > 500 | > 500 | < 10 | > 500 | > 500 | > 500 | > 500 | 25 (≈ 73.9 µM) | 500 (≈ 1480 µM) | > 500 | 25 (≈ 73.9 µM) | > 500 | > 500 | MIC ([14]; pH 6.8, nutrient agar): > 500 µg/mL; MIC ([14]; pH 8.2, nutrient agar): > 500 µg/mL; MIC [15]: 25 µg/mL (≈ 73.9 µM); MIC ([16]; pH 6.8, nutrient agar): > 500 µg/mL; MIC ([16]; pH 8.2, nutrient agar): > 500 µg/mL |
